We go through eleven molecules from ChEMBL document CHEMBL1201862, “PubChem BioAssay data set” (2004).

Holding throughout (test): NCI tumour cell line growth inhibition, 48 h
The subject of assay [1] is 786-0.
For assay [2], the system named is A549.
Assay [3] concerns HCC 2998.
The test system of assay [4] is HOP-62.
For assay [5], the system named is K562.
The subject of assay [6] is LOX IMVI.
Assay [7] deals with M14.
Assay [8] concerns Malme-3M.
The test system of assay [9] is NCI-H460.
The test system of assay [10] is NCI-H522.
In assay [11] the test system is OVCAR-3.
Assay [12] has as its system RPMI-8226.
Assay [13] deals with SF-295.
Assay [14] deals with SK-MEL-28.
Assay [15] concerns SK-MEL-2.
Assay [16] deals with UACC-257.
In assay [17] the test system is UO-31.
Assay [18] deals with HOP-92.
The subject of assay [19] is HL-60.

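Where inhibition never reached the appropriate level, the endpoint shown equals the highest concentration tested. Otherwise, values were interpolated linearly from a five-concentration, 48-hour dose response in 96-well plates. GI50 = concentration required for 50% inhibition of growth.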 Calls of active or inactive are those of the source. No stated cut-off is given here; in the data, active = GI50 up to about 1.1 µM and inactive = higher. Where a SMILES comes first, the peptide text is derived from it. [ ]: non-standard residue; d: D form. Phe(4-NO2) = N[CH](Cc1ccc([N+](=O)[O-])cc1)C(=O)O

Regarding `CCOC(=O)C1=C(C)N(NC(N)=O)C2(N)N(NC(N)=O)C(C)=C(C(=O)OCC)C12C(=O)OCC` (stereo not drawn), the GI50 in [1], in assay [2], in assay [3], in assay [4], in assay [5] and in [6] was > 100 µM (inactive) each time. Moreover, the GI50 in [7], in assay [8], in [9], in assay [10], in [11] and in assay [12] was > 100 µM (inactive) throughout. Further, the GI50 in assay [13], in assay [14], in [15], in assay [16] and in assay [17] was > 100 µM (inactive) each time.
Take `C=C1CC2CC(O)CC(C1)C2` (stereo not drawn): the GI50 in [1], in [2], in assay [4], in [18], in [6] and in [7] was > 100 µM (inactive) throughout. Besides, the GI50 in assay [8] was > 100 µM (inactive); in [9] it was > 100 µM (inactive); in assay [10], > 100 µM (inactive); in assay [11], > 100 µM (inactive); in [12], 32.4 µM (inactive); in [13], > 100 µM (inactive). Also, the GI50 in assay [14], in [15], in assay [16] and in assay [17] was > 100 µM (inactive) throughout.
On to `CC(=O)O[C@H]1C(=O)[C@@]2(C)[C@H]([C@H](OC(=O)c3ccccc3)[C@]3(O)C[C@H](OC(=O)[C@H](O)[C@@H](NC(=O)c4ccccc4)c4ccccc4)C(C)=C1C3(C)C)[C@]1(OC(C)=O)CO[C@@H]1C[C@@H]2O` [PACLITAXEL], for which the GI50 in [1] is 0.0337 µM (active); in assay [3] it was 0.00341 µM (active); in assay [19], 0.00427 µM (active); in assay [4], 0.0129 µM (active); in assay [6] it was 0.00355 µM (active); in [7], 0.0229 µM (active). Besides, the GI50 in [8] is 0.029 µM (active); in assay [9] it was 0.00296 µM (active); in assay [10], 0.00464 µM (active); in assay [12], 0.00267 µM (active); in [17], 1.09 µM (active).
With `COc1ccc(/C=C2\C(=O)N(C(=O)c3ccc(NC(C)=O)cc3)N=C2C)cc1OC`, the GI50 in [1], in [2], in assay [3], in assay [19], in assay [4] and in [5] was > 100 µM (inactive) in each case. The GI50 in [6], in assay [7], in assay [8], in assay [9], in [10] and in assay [11] was > 100 µM (inactive) each time. Also, the GI50 in assay [12], in [13], in [14], in assay [15], in assay [16] and in assay [17] was > 100 µM (inactive) each time.
`CCN1CC2=C(NC(=S)NC2c2ccc(Cl)cc2)/C(=C/c2ccc(Cl)cc2)C1` (stereo not drawn): the GI50 is 45.6 µM (inactive) in assay [1]; 29.7 µM (inactive) in assay [2]; 53.8 µM (inactive) in [3]; 23.7 µM (inactive) in [19]; > 100 µM (inactive) in assay [4]; 19.5 µM (inactive) in assay [5]. The GI50 in assay [6] was > 100 µM (inactive); in [7] it was > 100 µM (inactive); in assay [8], 97.3 µM (inactive); in assay [9], 18.5 µM (inactive); in [10], > 100 µM (inactive); in assay [11] it was 61.5 µM (inactive). For the same molecule, the GI50 in [12] is 17.5 µM (inactive); in [13], 67.1 µM (inactive); in assay [14] it was 24.4 µM (inactive); in assay [15], > 100 µM (inactive); in assay [16] it was > 100 µM (inactive); in assay [17], > 100 µM (inactive).
Consider `Cc1cc(N(CCC#N)S(=O)(=O)c2ccccc2)ccc1/C=C1N=C(/C=C/c2ccccc2)OC\1=O`, for which the GI50 was > 100 µM (inactive) in [1]; > 100 µM (inactive) in assay [2]; > 100 µM (inactive) in assay [3]; > 100 µM (inactive) in assay [19]; > 100 µM (inactive) in assay [4]; 94.6 µM (inactive) in assay [5]. Also, the GI50 in [6] was > 100 µM (inactive); in assay [7], > 100 µM (inactive); in assay [8], > 100 µM (inactive); in [9] it was > 100 µM (inactive); in [10], 67.9 µM (inactive); in [11] it was > 100 µM (inactive). For the same molecule, the GI50 in [12] was > 100 µM (inactive); in assay [13], > 100 µM (inactive); in assay [14], > 100 µM (inactive); in [15], > 100 µM (inactive); in assay [16], > 100 µM (inactive); in assay [17] it was 70.8 µM (inactive).
For the molecule `CCCCCCCCCCCCCC(=O)OCC1OC(=O)CC1O` (stereo not drawn), the GI50 was > 100 µM (inactive) in [1]; > 100 µM (inactive) in assay [2]; > 100 µM (inactive) in assay [3]; 43 µM (inactive) in assay [19]; > 100 µM (inactive) in assay [4]; 7.36 µM (inactive) in [18]. For the same molecule, the GI50 in assay [5] was 24.9 µM (inactive); in [6] it was 51.5 µM (inactive); in [7], 21.9 µM (inactive); in assay [8], > 100 µM (inactive); in assay [9], > 100 µM (inactive); in assay [11], > 100 µM (inactive). The GI50 in assay [12] is 49.8 µM (inactive); in assay [13] it was 35.2 µM (inactive); in assay [15] it was > 100 µM (inactive); in assay [16], > 100 µM (inactive); in [17] it was 20.2 µM (inactive).
Regarding `C/C(=N\NC(=O)C[n+]1ccccc1)c1sc(-c2nc(C)c(/C(C)=N/NC(=O)C[n+]3ccccc3)s2)nc1C`, the GI50 was > 100 µM (inactive) in assay [1]; > 100 µM (inactive) in [2]; > 100 µM (inactive) in assay [3]; > 100 µM (inactive) in assay [4]; > 100 µM (inactive) in assay [18]; 41.1 µM (inactive) in assay [5]. The GI50 in assay [6] is > 100 µM (inactive); in assay [7], > 100 µM (inactive); in [8], > 100 µM (inactive); in assay [9], > 100 µM (inactive); in assay [11] it was > 100 µM (inactive); in assay [12] it was 43.9 µM (inactive). The GI50 in [13], in assay [14], in assay [15], in assay [16] and in assay [17] was > 100 µM (inactive) in each case.
Take `CC1(CO)OC1COCc1ccccc1` (stereo not drawn): the GI50 in assay [1], in assay [2], in [19], in [4], in [18] and in [5] was > 100 µM (inactive) throughout. For the same molecule, the GI50 in assay [6], in assay [7], in [8], in assay [9], in [11] and in assay [12] was > 100 µM (inactive) each time. Moreover, the GI50 in assay [13], in assay [15], in [16] and in assay [17] was > 100 µM (inactive) each time.
For the molecule `COC(=O)CCC(NC(=O)C(CCC(=O)OC)NC(=O)C(CCC(=O)OC)NC(=O)C(CCC(=O)OC)NC(=O)C(CCC(=O)OC)NC(=O)C(Cc1ccc([N+](=O)[O-])cc1)NC(=O)C(CCC(=O)OC)NC(=O)C(CCC(=O)OC)NC(=O)C(CCC(=O)OC)NC(=O)C(CCC(=O)OC)NC(=O)C(CCC(=O)OC)NC(C)=O)C(N)=O` (stereo not drawn) (Ac-E(OMe)E(OMe)E(OMe)E(OMe)E(OMe)[Phe(4-NO2)]E(OMe)E(OMe)E(OMe)E(OMe)E(OMe)-NH2; configuration not given here), the GI50 in assay [1] is > 100 µM (inactive); in [2], > 100 µM (inactive); in assay [6], > 100 µM (inactive); in assay [7], 37.9 µM (inactive); in [8] it was > 100 µM (inactive); in assay [9], > 100 µM (inactive). Moreover, the GI50 in assay [10] was > 100 µM (inactive); in assay [12], > 100 µM (inactive); in [13], 31.4 µM (inactive); in [14] it was > 100 µM (inactive); in assay [15] it was > 100 µM (inactive); in [16] it was > 100 µM (inactive). In addition, the GI50 in assay [17] was > 100 µM (inactive).
`NNC(=O)c1nnn(CCc2ccccc2)c1C(=O)NN`: the GI50 in assay [1], in [2], in [3], in [19], in assay [4] and in assay [5] was > 100 µM (inactive) each time. Besides, the GI50 in [6], in [7], in assay [8], in assay [9], in assay [11] and in assay [12] was > 100 µM (inactive) each time. Also, the GI50 in assay [13], in assay [14], in [15], in [16] and in assay [17] was > 100 µM (inactive) in each case.
